The source of these data is patent US10730839B2, “Quinolines as cytoprotective agents” (priority 2016, dated 2020).

SMILES strings stand for the structures.

Test [1] has as its system CSM14.1 neuronal cells. Put plainly: Cell survival assay (thapsigargin-treated cells, CELLTITER-GLO luminescence). The conditions noted are these: compound 2 hrs before about 15 μM thapsigargin, overnight. It is filed as cell-based. The method, then:
CSM14.1 neuronal cells were maintained in Complete Medium at 32° C.; wherein the Complete Medium contained Dulbecco's modified eagle medium (DMEM) with 10% fetal bovine serum (FSB), 1% L-glutamine, 100 IU/mL penicillin, and 100 μg/mL streptomycin. The cells were recovered from cultures by trypsinization and then seeded in 384 well plates (Greiner #781098) at a concentration of 1,000 cells/well in 20 μL of DMEM Assay Medium, wherein the DMEM Assay Medium contained 2% FBS, 100 IU/mL penicillin, and 100 μg/mL streptomycin. Seeding was performed using a MultiDrop Combi reagent broadcaster. The plates were incubated overnight at 32° C. A test compound was prepared by 2-fold serial dilution in 100% DMSO using a BIOMEK® 2000 liquid handler (Beckman Coulter). A dose-response curve containing 10 concentrations of the test compound was obtained. Using a BIOMEK® FX liquid handler (Beckman Coulter), 2.5 μL of the test compound was transferred from the 100% DMSO serial dilution plate to an intermediate plate containing 47.5 μL of DMEM Assay Medium containing 2% FBS, 100 IU/mL penicillin, and 100 μg/mL streptomycin and mixed. To reduce or eliminate the interference from the compound's precipitation, 6 μL of the diluted compound was immediately transferred to the assay plate to achieve a high compound concentration of 100 μM in 99% DMEM Assay Medium and 1% DMSO. After the assay plates were incubated for 2 hrs, 4 μL of 112.5 μM thapsigargin (TG) (DMSO stock diluted into Assay TC Medium) was dispensed into each testing well with a MultiDrop Combi reagent broadcaster for a final concentration of about 15 μM TG. The tissue culture media (4 μL) containing vehicle only was transferred manually to each control cell using a 16 channel electronic pipette. After the plates were incubated overnight (about 16 to 24 hrs), CELLTITER-GLO® (Promega) (16 μL) was added to all wells and luminescence was measured. High luminescence indicates cell survival. The biological results are summarized in Table 1 where A represents a cell viability EC50 less than 1 μM and B represents a value greater than 1 μM and less than 10 μM and C represents a value equal to or greater than 10 μM and less than 20 μM.
For orientation: ATP-based viability assays read luminescence as a measure of living cells.

In test [2] the test system is HEK293 cells; N2a cells. Put plainly: Cell rescue assay: protection against thapsigargin (TG)-induced cell-death (ALAMARBLUE). The conditions noted are these: Homo sapiens; compound 20 μM, 2 hrs before thapsigargin (15 μM HEK293, 1 μM N2a), 24 hrs; viability as % RFU compared to control; read-out: Cell Survival %. In kind it is cell-based, Human; Mouse. The protocol: Protection against Thapsigargin (TG)-induced Cell-death. Human embryonic kidney (HEK293) cells were grown in Dulbecco's Modified Eagle's Medium (DMEM) with 10% FBS and 1% antibiotic antimycotic solution (ABAM). Mouse neuroblastoma (N2a) cells were grown in 1:1 DMEM:OPTI-MEM® with 5% FBS and 1% ABAM. All cells were grown in 10% CO2 in a humidified environment of the incubator. Cells grown in 96-well plates were exposed to a test compound (20 μM) for 2 hrs before addition of thapsigargin (15 μM for HEK293 cells and 1 μM for N2a cells) to induce ER stress. After incubation in cell-culture incubator for 24 hrs, ALAMARBLUE® regent (10% v/v) was added to the wells. Fluorescence reading was taken 2 hrs after the addition of the ALAMARBLUE® regent. Cell-viability was calculated as a percentage of relative fluorescence unit (RFU) compared to control. […] The biological results are summarized in Table 2, where each compound was tested at 20 μM and where A represents a viability greater than 50%, B represents a viability greater than 10% and less than 50%, C represents a value at or below 10%.

Test [3] deals with SH-SY5Y cells. Description: Cell rescue assay: protection against ß-amyloid-induced cell toxicity. It is filed as cell-based. Conditions: Homo sapiens, 96 h, 7.5 uM compound, AB 1-42 at 10 uM, 4 days, OD at 490 nm, read-out: Cell Survival % (cell rescue). The protocol: Protection against ß-amyloid-induced cell toxicity. Chonpathompikunlert et al. Eu. J. Pharmacol. 2011, 650, 544-549. Human SH-SY5Y cells are suspended in media containing 2% FBS and 2× Gentamicin. Transfer 100 ul/well culture to 96-well plate (20,000 cells/well; passage #5) and incubate overnight. Prepare compound samples at 30 uM. Add 50 ul of the samples to the cells [[…]] and incubate 3 hours. Make stock of 40 uM AB 1-42 peptide in assay media. Transfer 50 ul/well to cells/compounds in assay plate. The final assay volume is 200 ul/well, containing 2% FBS, 2× Gentamicin, 7.5 uM compound and AB 1-42 at 10 uM. Incubate for 4 days then add 20 ul of Promega Substrate Cell Titer 96 Aqueous One Solution Reagent to each well. Incubate 37 OC and read OD at 490 nm. The results are summarized in Table 3, where A represents a value equal to or greater than 50% cell rescue, B represents a value greater than 10% and less than 50% cell rescue, and C represents a value greater than 1% and less than or equal to 10% cell rescue.

Test [4] deals with T1, SERCA (Homo sapiens, UniProt P16615).
T1 construct: microsomal preparations from HEK 293 cells; endogenous in cells; host or cells: HEK 293 cells (microsomal preparation)
T1 sequence (P16615 whole entry): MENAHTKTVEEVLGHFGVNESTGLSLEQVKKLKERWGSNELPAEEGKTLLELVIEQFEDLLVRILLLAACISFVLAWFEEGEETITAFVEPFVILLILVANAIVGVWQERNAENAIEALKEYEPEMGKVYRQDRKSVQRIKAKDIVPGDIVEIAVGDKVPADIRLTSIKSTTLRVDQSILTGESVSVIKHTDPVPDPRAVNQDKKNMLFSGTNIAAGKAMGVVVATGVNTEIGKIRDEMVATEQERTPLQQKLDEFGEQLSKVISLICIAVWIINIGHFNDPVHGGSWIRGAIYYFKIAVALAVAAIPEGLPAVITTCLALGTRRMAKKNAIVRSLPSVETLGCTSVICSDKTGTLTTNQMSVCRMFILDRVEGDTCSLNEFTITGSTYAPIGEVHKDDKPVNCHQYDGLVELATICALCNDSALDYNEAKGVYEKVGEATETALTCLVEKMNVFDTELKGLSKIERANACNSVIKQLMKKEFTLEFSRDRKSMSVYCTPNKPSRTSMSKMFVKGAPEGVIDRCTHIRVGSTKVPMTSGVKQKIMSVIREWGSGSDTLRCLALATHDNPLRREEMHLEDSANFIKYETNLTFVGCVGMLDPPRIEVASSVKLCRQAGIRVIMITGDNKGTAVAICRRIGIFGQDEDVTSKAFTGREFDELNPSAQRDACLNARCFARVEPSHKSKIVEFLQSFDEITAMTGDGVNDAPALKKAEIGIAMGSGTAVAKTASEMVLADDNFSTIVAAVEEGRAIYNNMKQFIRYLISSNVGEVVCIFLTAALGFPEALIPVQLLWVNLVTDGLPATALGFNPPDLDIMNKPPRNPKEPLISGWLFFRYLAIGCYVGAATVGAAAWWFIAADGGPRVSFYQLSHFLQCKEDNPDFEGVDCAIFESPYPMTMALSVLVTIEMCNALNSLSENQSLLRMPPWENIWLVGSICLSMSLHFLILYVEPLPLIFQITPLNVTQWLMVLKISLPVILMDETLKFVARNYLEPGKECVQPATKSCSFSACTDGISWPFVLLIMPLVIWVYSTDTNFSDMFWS
Put plainly: Ca-ATPase assay (NADH-linked, enzyme-coupled ATPase assay). It is filed as biochemical. Conditions: microsomal preparations from HEK 293 cells, Vmax from Hill fit of ATPase calcium-dependence, relative to controls. The protocol:
A Ca-ATPase assay was performed using microsomal preparations from HEK 293 cells at a series of calcium concentrations corresponding to the physiological range, relative to controls. The ATP hydrolysis rate was measured over a range of calcium concentrations in the presence of test compounds using an NADH-linked, enzyme-coupled ATPase assay adapted for 96-well microplates, with Vmax determined by fitting the ATPase calcium-dependence to the Hill function. Each well contained 2 μg or 7 μg of SR vesicles (optimized for skeletal or cardiac SR, respectively), 50 mM MOPS (pH 7.0), 100 mM KCl, 5 mM MgCl2, 1 mM EGTA, 0.2 mM NADH, 1 mM phosphoenol pyruvate, 5 IU pyruvate kinase, 5 IU lactate dehydrogenase, and 3.5 μg/mL A23187 (a calcium ionophore). CaCl2 was added to set free [Ca^2+] to the specific values. The assay was started upon addition of ATP at a final concentration of 5 mM, and read in a SpectraMax Plus microplate spectrophotometer. The results are summarized in Table 4, where A represents an increase in SERCA Vmax greater than or equal to 50% and B represents a value greater than 10% and less than 50%.

Test [5] deals with Ob/ob mice. Put plainly: Effect of a SERCA agonist on the level of blood glucose. In kind it is in vivo. The conditions noted are these: Mus musculus, ip, 96 h, 50 mg/kg i.p. once a day for 5 days, fasting glucose at baseline and 4 days after administration, read-out: Glucose level reduction. The protocol:
Ob/ob mice (10 weeks old, n=7) were intraperitoneally (i.p.) injected with 100 μL of a solution containing 0 (vehicle) or 50 mg/kg of a test compound once a day for a total of 5 days. Fasting glucose was measured at baseline and 4 days after the administration of the test compound. Glucose levels were measured in blood samples drawn from the tail vein using a handheld glucose sensor. Compound effects on blood glucose are shown in Table 5 where A represents a 10-20% reduction in blood glucose, B represents a 21-30% reduction in blood glucose, and C represents a greater than 30% reduction in blood glucose levels.

Regarding `Cc1ccc2cccc(C(=O)Nc3ccc(OC(C)C)cc3)c2n1` [A1, N-(4-Isopropoxyphenyl)-2-methylquinoline-8-carboxamide], the EC50 in test [1] fell in the range of 1 to 10 µM. In addition, the viability at 20 µM in test [2] was more than 50%. Further, the viability at 7.5 µM in test [3] lay in the range of 10 to 50%. Besides, the “SERCA Vmax Increase” value in test [4] was “A (an increase in SERCA Vmax greater than or equal to 50%)”. Further, the inhibition in vivo at 50 mg/kg in test [5] was more than 30%.
`Cc1ccc2cccc(C(=O)Nc3ccc(Cl)cc3)c2n1` [A2, N-(4-Chlorophenyl)-2-methylquinoline-8-carboxamide] returned an EC50 in test [1] of 1 to 10 µM. The viability at 20 µM in test [2] was more than 50%. In test [3], the viability at 7.5 µM was not below 50%. The “SERCA Vmax Increase” value in test [4] is “B (a value greater than 10% and less than 50%)”. Further, in test [5], the inhibition in vivo at 50 mg/kg is more than 30%.
`Cc1ccc2cccc(C(=O)Nc3cccc(F)c3)c2n1` [A3, N-(3-Fluorophenyl)-2-methylquinoline-8-carboxamide] yielded an EC50 in test [1] of 10 to 20 µM. Further, in test [2], the viability at 20 µM was 10 to 50%. Further, the viability at 7.5 µM in test [3] was 10 to 50%. Moreover, in test [4], the “SERCA Vmax Increase” value is “B (a value greater than 10% and less than 50%)”. The inhibition in vivo at 50 mg/kg in test [5] was in the range of 10 to 20%.
In turn, `Cc1ccc2cccc(C(=O)Nc3ccc(N(C)C)cc3)c2n1` [A4, N-(4-(Dimethylamino)phenyl)-2-methylquinoline-8-carboxamide] came in with an EC50 in test [1] of less than 1 µM. Besides, the viability at 20 µM in test [2] is 10 to 50%. Also, the viability at 7.5 µM in test [3] fell in the range of 10 to 50%. The “SERCA Vmax Increase” value in test [4] is reported as “A (an increase in SERCA Vmax greater than or equal to 50%)”. Further, the inhibition in vivo at 50 mg/kg in test [5] lay within 21 to 30%.
`Cc1ccc(NC(=O)c2cccc3ccc(C)nc23)cc1` [A5, N-(4-Methylphenyl)-2-methylquinoline-8-carboxamide] registered an EC50 in test [1] of 1 to 10 µM. Also, the viability at 20 µM in test [2] is more than 50%. For the same compound, the viability at 7.5 µM in test [3] was not below 50%. Further, the “SERCA Vmax Increase” value in test [4] was “B (a value greater than 10% and less than 50%)”. In test [5], the inhibition in vivo at 50 mg/kg is 21 to 30%.
With `Cc1ccc2cccc(C(=O)Nc3cc(Br)cs3)c2n1` [B1, N-(4-Bromothiophen-2-yl)-2-methylquinoline-8-carboxamide], the EC50 in test [1] fell in the range of 1 to 10 µM. Further, the viability at 20 µM in test [2] is more than 50%. For the same compound, in test [3], the viability at 7.5 µM lay in the range of 10 to 50%. In addition, the “SERCA Vmax Increase” value in test [4] was “A (an increase in SERCA Vmax greater than or equal to 50%)”. Besides, the inhibition in vivo at 50 mg/kg in test [5] was more than 30%.
Taken in the same sequence, the figures for `Cc1ccc2cccc(C(=O)Nc3ccc(Br)s3)c2n1` [B2, N-(5-Bromothiophen-2-yl)-2-methylquinoline-8-carboxamide] were 1 to 10 µM, more than 50%, 10 to 50%, “A (an increase in SERCA Vmax greater than or equal to 50%)” and 21 to 30%.
`Cc1ccc2cccc(C(=O)Nc3ccc(C)s3)c2n1` [B3, 2-Methyl-N-(5-methylthiophen-2-yl)quinoline-8-carboxamide] came in with an EC50 in test [1] of 1 to 10 µM. The viability at 20 µM in test [2] was not above 10%. Moreover, the viability at 7.5 µM in test [3] lay within 1 to 10%. Besides, in test [4], the “SERCA Vmax Increase” value was “B (a value greater than 10% and less than 50%)”. Also, the inhibition in vivo at 50 mg/kg in test [5] was 10 to 20%.
As for `Cc1ccc2cccc(C(=O)Nc3cccs3)c2n1` [B4, 2-Methyl-N-(thiophen-2-yl)quinoline-8-carboxamide], the EC50 in test [1] lay within 1 to 10 µM. Moreover, the viability at 20 µM in test [2] was more than 50%. In test [3], the viability at 7.5 µM was not below 50%. Moreover, the “SERCA Vmax Increase” value in test [4] is “B (a value greater than 10% and less than 50%)”. Further, in test [5], the inhibition in vivo at 50 mg/kg was more than 30%.
As for `Cc1ccc2cccc(C(=O)Nc3ccc(C4CC4)s3)c2n1` [B5, N-(5-Cyclopropylthiophen-2-yl)-2-methylquinoline-8-carboxamide], the EC50 in test [1] is 1 to 10 µM. Moreover, the viability at 20 µM in test [2] is not above 10%. Besides, the viability at 7.5 µM in test [3] fell in the range of 1 to 10%. Also, the “SERCA Vmax Increase” value in test [4] was “A (an increase in SERCA Vmax greater than or equal to 50%)”. For the same compound, the inhibition in vivo at 50 mg/kg in test [5] is 10 to 20%.

As a reminder, the EC50 is the concentration needed to bring the measured effect to its halfway point. Read a low EC50 as higher potency in that assay.
